Laboratory results: patent US20100311714A1, “1H-IMIDAZO[4,5-c]QUINOLINONE COMPOUNDS” (priority 2009, published 2010)
Values after ≈ are worked out from the molar mass of the structure shown.

Tests used:
[1] = High-throughput equilibrium solubility at pH 6.8; assay type: physicochemical; conditions: pH 6.8, aqueous buffer, thermodynamic from solid; read-out: HT-Eq Sol/pH 6.8
Procedure, shortened: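 Solubility was measured at pH 6.8 following the cited Zhou et al. (2007) procedure.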

[2] = tested on: PKB Ser473 phosphorylation in Rat1-myr-HA-p110 alpha cells; assay: Reverse protein array, PKB Ser473 phosphorylation in Rat1-myr-HA-p110 alpha cells; assay type: cell-based; conditions: Rattus norvegicus, 0.5 h, 30 minutes compound incubation, read-out: p-PKB/IC50_alpha
[3] = tested on: PKB Ser473 phosphorylation in Rat1-myr-HA-p110 delta cells; assay: Reverse protein array, PKB Ser473 phosphorylation in Rat1-myr-HA-p110 delta cells; assay type: cell-based; conditions: Rattus norvegicus, 0.5 h, 30 minutes compound incubation, read-out: p-PKB/IC50_delta

solubility thermodynamic [1] [µg/mL]	IC50 [2] [nM]	IC50 [3] [nM]	SMILES
26 (≈ 56.8 µM)	7.8	114	COc1ccc(-n2c(=O)n(C)c3cnc4ccc(-c5cnc(CO)c(OC)c5)cc4c32)c(C)n1 [Example 11.8, 8-(6-Hydroxymethyl-5-methoxy-pyridin-3-yl)-1-(6-methoxy-2-methyl-pyridin-3-yl)-3-methyl-1,3-dihydro-imidazo[4,5-c]quinolin-2-one]
4 (≈ 9.4 µM)	20.4	68.1	CCOc1ccc(-c2ccc3ncc4c(c3c2)n(-c2ccc(C)nc2C)c(=O)n4C)cn1 [Example 14.2, 1-(2,6-Dimethyl-pyridin-3-yl)-8-(6-ethoxy-pyridin-3-yl)-3-methyl-1,3-dihydro-imidazo[4,5-c]quinolin-2-one]
2 (≈ 4.56 µM)	18.4	407	Cc1cc(F)ncc1-n1c(=O)n(C)c2cnc3ccc(-c4cnc5c(ccn5C)c4)cc3c21 [Example 16.5, 1-(6-Fluoro-4-methyl-pyridin-3-yl)-3-methyl-8-(1-methyl-1H-pyrrolo[2,3-b]pyridin-5-yl)-1,3-dihydro-imidazo[4,5-c]quinolin-2-one]
15 (≈ 31.8 µM)	6.9	37.1	CNc1ncc(-c2ccc3ncc4c(c3c2)n(-c2ccc(OCCOC)nc2C)c(=O)n4C)cn1 [Example 13.5, 1-[6-(2-Methoxy-ethoxy)-2-methyl-pyridin-3-yl]-3-methyl-8-(2-methylamino-pyrimidin-5-yl)-1,3-dihydro-imidazo[4,5-c]quinolin-2-one]
3 (≈ 6.56 µM)	15.2	140	CNC(=O)c1cc(-c2ccc3ncc4c(c3c2)n(-c2ccc(F)nc2C)c(=O)n4C)cnc1N [Example 7.14, 2-Amino-5-[1-(6-fluoro-2-methyl-pyridin-3-yl)-3-methyl-2-oxo-2,3-dihydro-1H-imidazo[4,5-c]quinolin-8-yl]-N-methyl-nicotinamide]
3 (≈ 6.6 µM)	4.9	8.3	CCNc1cc(-c2ccc3ncc4c(c3c2)n(-c2ccc(OC)nc2C)c(=O)n4C)cnc1C [Example 11.7, 8-(5-Ethylamino-6-methyl-pyridin-3-yl)-1-(6-methoxy-2-methyl-pyridin-3-yl)-3-methyl-1,3-dihydro-imidazo[4,5-c]quinolin-2-one]
3 (≈ 6.87 µM)	5.44	72	COc1ncccc1-n1c(=O)n(C)c2cnc3ccc(-c4cnc5c(ccn5C)c4)cc3c21 [Example 1.7, 1-(2-Methoxy-pyridin-3-yl)-3-methyl-8-(1-methyl-1H-pyrrolo[2,3-b]pyridin-5-yl)-1,3-dihydro-imidazo[4,5-c]quinolin-2-one]
81 (≈ 167 µM)	5	53.3	CNc1ncc(-c2ccc3ncc4c(c3c2)n(-c2ccc(N(C)CCOC)nc2C)c(=O)n4C)cn1 [Example 15.2, 1-{6-[(2-Methoxy-ethyl)-methyl-amino]-2-methyl-pyridin-3-yl}-3-methyl-8-(2-methylamino-pyrimidin-5-yl)-1,3-dihydro-imidazo[4,5-c]quinolin-2-one]
3 (≈ 6.4 µM)	13.3	42.9	Cc1cc(F)ncc1-n1c(=O)n(C)c2cnc3ccc(-c4cnc(N)c(C(F)(F)F)c4)cc3c21 [Example 16.1, 8-(6-Amino-5-trifluoromethyl-pyridin-3-yl)-1-(6-fluoro-4-methyl-pyridin-3-yl)-3-methyl-1,3-dihydro-imidazo[4,5-c]quinolin-2-one]
5 (≈ 10.4 µM)	< 4.57	< 4.57	CCNc1cc(-c2ccc3ncc4c(c3c2)n(-c2ccc(N(C)CC)nc2C)c(=O)n4C)cnc1C [Example 12.2, 8-(5-Ethylamino-6-methyl-pyridin-3-yl)-1-[6-(ethyl-methyl-amino)-2-methyl-pyridin-3-yl]-3-methyl-1,3-dihydro-imidazo[4,5-c]quinolin-2-one]
67.5 (≈ 147 µM)	20.1	172	CCOCc1cc(-c2ccc3ncc4c(c3c2)n(-c2ccc(F)nc2C)c(=O)n4C)cnc1N [Example 7.15, 8-(6-Amino-5-ethoxymethyl-pyridin-3-yl)-1-(6-fluoro-2-methyl-pyridin-3-yl)-3-methyl-1,3-dihydro-imidazo[4,5-c]quinolin-2-one]
27 (≈ 65 µM)	64.1	304	CNc1ncc(-c2ccc3ncc4c(c3c2)n(-c2cnc(F)cc2C)c(=O)n4C)cn1 [Example 16.3, 1-(6-Fluoro-4-methyl-pyridin-3-yl)-3-methyl-8-(2-methylamino-pyrimidin-5-yl)-1,3-dihydro-imidazo[4,5-c]quinolin-2-one]
10 (≈ 23.5 µM)	6.9	46.4	Cc1nc(N(C)C)ccc1-n1c(=O)n(C)c2cnc3ccc(-c4cncc(N)c4)cc3c21 [Example 19.5, 8-(5-Amino-pyridin-3-yl)-1-(6-dimethylamino-2-methyl-pyridin-3-yl)-3-methyl-1,3-dihydro-imidazo[4,5-c]quinolin-2-one]
299 (≈ 652 µM)	< 4.57	41.5	CCNc1cc(-c2ccc3ncc4c(c3c2)n(-c2ccc(F)nc2C)c(=O)n4C)cnc1CO [Example 7.9, 8-(5-Ethylamino-6-hydroxymethyl-pyridin-3-yl)-1-(6-fluoro-2-methyl-pyridin-3-yl)-3-methyl-1,3-dihydro-imidazo[4,5-c]quinolin-2-one]
13 (≈ 26.7 µM)	27.7	134	COCc1ncc(-c2ccc3ncc4c(c3c2)n(-c2ccc(OC)nc2OC)c(=O)n4C)cc1OC [Example 8.12, 1-(2,6-Dimethoxy-pyridin-3-yl)-8-(5-methoxy-6-methoxymethyl-pyridin-3-yl)-3-methyl-1,3-dihydro-imidazo[4,5-c]quinolin-2-one]
28 (≈ 59.6 µM)	287	194	COCC(=O)Nc1ccc(-n2c(=O)n(C)c3cnc4ccc(-c5cncc(N)c5)cc4c32)c(C)n1 [Example 20.1, N-{5-[8-(5-Amino-pyridin-3-yl)-3-methyl-2-oxo-2,3-dihydro-imidazo[4,5-c]quinolin-1-yl]-6-methyl-pyridin-2-yl}-2-methoxy-acetamide]
207 (≈ 466 µM)	12.6	17.1	CNc1cc(-c2ccc3ncc4c(c3c2)n(-c2ccc(F)nc2C)c(=O)n4C)cnc1CO [Example 7.11, 1-(6-Fluoro-2-methyl-pyridin-3-yl)-8-(6-hydroxymethyl-5-methylamino-pyridin-3-yl)-3-methyl-1,3-dihydro-imidazo[4,5-c]quinolin-2-one]
7 (≈ 16.5 µM)	39	122	Cc1ccc(-n2c(=O)n(C)c3cnc4ccc(-c5cnc(N(C)C)nc5)cc4c32)c(C)n1 [Example 14.3, 8-(2-Dimethylamino-pyrimidin-5-yl)-1-(2,6-dimethyl-pyridin-3-yl)-3-methyl-1,3-dihydro-imidazo[4,5-c]quinolin-2-one]
34 (≈ 75 µM)	< 4.57	< 4.57	CNc1cc(-c2ccc3ncc4c(c3c2)n(-c2ccc(N(C)C)nc2C)c(=O)n4C)cnc1C [Example 19.2, 1-(6-Dimethylamino-2-methyl-pyridin-3-yl)-3-methyl-8-(6-methyl-5-methylamino-pyridin-3-yl)-1,3-dihydro-imidazo[4,5-c]quinolin-2-one]
> 512	18	40.2	COc1nc(N2CCNCC2)ccc1-n1c(=O)n(C)c2cnc3ccc(-c4cnc(N(C)C)nc4)cc3c21 [Example 9.4, 8-(2-Dimethylamino-pyrimidin-5-yl)-1-(2-methoxy-6-piperazin-1-yl-pyridin-3-yl)-3-methyl-1,3-dihydro-imidazo[4,5-c]quinolin-2-one]
7 (≈ 15.9 µM)			CNc1ncc(-c2ccc3ncc4c(c3c2)n(-c2ccc(N(C)C)nc2C)c(=O)n4C)cn1 [Example 19.1, 1-(6-Dimethylamino-2-methyl-pyridin-3-yl)-3-methyl-8-(2-methylamino-pyrimidin-5-yl)-1,3-dihydro-imidazo[4,5-c]quinolin-2-one]
	7.27	10.7	COc1ccc(-n2c(=O)n(C)c3cnc4ccc(-c5cnc(N)c(C(F)(F)F)c5)cc4c32)c(OC)n1 [Example 8.1, 8-(6-Amino-5-trifluoromethyl-pyridin-3-yl)-1-(2,6-dimethoxy-pyridin-3-yl)-3-methyl-1,3-dihydro-imidazo[4,5-c]quinolin-2-one]
	4.9	14.4	Cc1ccc(-n2c(=O)n(C)c3cnc4ccc(-c5cnc(N)c(C(F)(F)F)c5)cc4c32)c(C)n1 [Example 14.5, 8-(6-Amino-5-trifluoromethyl-pyridin-3-yl)-1-(2,6-dimethyl-pyridin-3-yl)-3-methyl-1,3-dihydro-imidazo[4,5-c]quinolin-2-one]
	40.7	229	COCCN(C)c1ccc(-n2c(=O)n(C)c3cnc4ccc(-c5cnc(N(C)C)nc5)cc4c32)c(C)n1 [Example 15.5, 8-(2-Dimethylamino-pyrimidin-5-yl)-1-{6-[(2-methoxy-ethyl)-methyl-amino]-2-methyl-pyridin-3-yl}-3-methyl-1,3-dihydro-imidazo[4,5-c]quinolin-2-one]
	12.3	212	CCOc1ccc(-c2ccc3ncc4c(c3c2)n(-c2ccc(N(C)CCOC)nc2C)c(=O)n4C)cn1 [Example 15.3, 8-(6-Ethoxy-pyridin-3-yl)-1-{6-[(2-methoxy-ethyl)-methyl-amino]-2-methyl-pyridin-3-yl}-3-methyl-1,3-dihydro-imidazo[4,5-c]quinolin-2-one]
	5.2	45.7	CCN(C)c1ccc(-n2c(=O)n(C)c3cnc4ccc(-c5ccc(NC)nc5)cc4c32)c(C)n1 [Example 12.1, 1-[6-(Ethyl-methyl-amino)-2-methyl-pyridin-3-yl]-3-methyl-8-(6-methylamino-pyridin-3-yl)-1,3-dihydro-imidazo[4,5-c]quinolin-2-one]
